Active and inactive are the calls of the source. The rule behind the calls is not given here.
What follows are compounds tested on Mus musculus (assay: Ability to abolish the hindlimb tonic extensor components of a maximal electroshock-induced seizure in vivo; NA means Not active at 10 mg/kg).
Format: functional, organism-based
Set-up: dose 10 mg/kg
In the case of `C[C@@H]1Cc2cc3c(cc2C(c2ccc(Cl)cc2)=NN1c1ccccn1)OCO3`, the ED50 is reported as “inactive”. With `C[C@@H]1Cc2cc3c(cc2C(c2ccccc2)=NN1c1ccccn1)OCO3` the ED50 was “inactive”. `C[C@@H]1Cc2cc3c(cc2C(c2ccc(I)cc2)=NN1c1ccccn1)OCO3` was tested, and the ED50 was “inactive”. For `C[C@@H]1Cc2cc3c(cc2C(c2ccc(N)cc2)=NN1c1cccc2ccccc12)OCO3`, the ED50 was “inactive”.

The compounds below were run on Mus musculus (assay: Ability to abolish the hindlimb tonic extensor components of a maximal electroshock-induced seizure in vivo).
Format: functional
In the case of `CC(=O)N1N=C(c2ccc(N)cc2)c2cc3c(cc2C[C@H]1C)OCO3` [TALAMPANEL], the ED50 is reported as 0.48 mg/kg. `C[C@@H]1Cc2cc3c(cc2C(c2ccc(N)cc2)=NN1c1ccccn1)OCO3` gave an ED50 of 0.76 mg/kg. In the case of `C[C@@H]1Cc2cc3c(cc2C(c2ccc(N)cc2)=NN1c1ccccc1)OCO3`, the ED50 is reported as 1.47 mg/kg. `C[C@@H]1Cc2cc3c(cc2C(c2ccc(N)cc2)=NN1c1nc2ccccc2s1)OCO3` showed an ED50 of 5 mg/kg. In the case of `C[C@@H]1Cc2cc3c(cc2C(c2ccc(N)cc2)=NN1c1nc2ccccc2[nH]1)OCO3`, the ED50 is reported as 3.2 mg/kg. Work on `C[C@@H]1Cc2cc3c(cc2C(c2ccc(N)cc2)=NN1c1nncc2ccccc12)OCO3` yielded an ED50 of 7.8 mg/kg.

Each compound was assayed on Mus musculus (assay: Ability to abolish the hindlimb tonic extensor components of a maximal electroshock-induced seizure in vivo; NA means Not active).
Format: functional, organism-based
With `C[C@@H]1Cc2cc3c(cc2C(c2ccc(N)cc2)=NN1c1ccc2ccccc2n1)OCO3` the ED50 was “inactive”. `C[C@@H]1Cc2cc3c(cc2C(c2ccc(N)cc2)=NN1c1nccc(C(F)(F)F)n1)OCO3` was tested, and the ED50 was “inactive”.

The compounds below were run on Mus musculus (assay: Ability to abolish the hindlimb tonic extensor components of a maximal electroshock-induced seizure in vivo at 5 mg/kg; None mice protected).
Format: functional
In the case of `C[C@@H]1Cc2cc3c(cc2C(c2ccc(N)cc2)=NN1c1nc2ccccc2s1)OCO3`, the Protection is reported as 0%.

These compounds were tested on Mus musculus (assay: Ability to abolish the hindlimb tonic extensor components of a maximal electroshock-induced seizure in vivo at 10 mg/kg).
Format: functional
With `COC(=O)c1ccsc1N1N=C(c2ccc(N)cc2)c2cc3c(cc2C[C@H]1C)OCO3` the Protection was 40%. For `C[C@@H]1Cc2cc3c(cc2C(c2ccc(N)cc2)=NN1c1nc2ccccc2s1)OCO3`, the Protection was 80%.

Reference: ChEMBL document CHEMBL1131789, “Synthesis and anticonvulsant activity of 3-aryl-5H-2,3-benzodiazephine AMPA antagonists” (1999)
